Values quoted from earlier work, collected in US20070219271A1, “Pharmaceutical Compositions Containing Pufa And At Least One Of An Immunosuppressive Agent Or An Antineoplastic Agent” (Tillotts Pharma AG, priority 2004, published 2007).

Tested on: human squamous carcinoma line and multidrug-resistant and carboplatin-resistant variants
Conditions: cells pre-treated with GLA

CCCCC/C=C\C/C=C\C/C=C\CCCCC(=O)O [GLA, gamma-linoleic acid]
enhancement of vincristine toxicity: up to 40%
enhancement of toxicity of carboplatin (depending on the concentration of GLA, human squamous carcinoma and carboplatin-resistant variant cell lines): > 50%
